Columns and labels:
Assay in all cases: relative viability (nuclei count vs DMSO), 5 days (fraction); higher = more cells survive
[1] = system: ChaGo-K-1
Outline: (§1)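 The day after seeding in 1536-well plates, lung cancer cell lines were treated by pin tool with a single drug, or with a fixed anchor-drug dose together with five library-drug doses (not always all listed) in √10 steps. After 5 days, a combined fix-and-stain solution (final 0.05% Triton X-100, 1% formaldehyde, 1 ug/ml Hoechst) was added. Nuclei counted on 4× images gave relative viability as treated counts over vehicle counts, reported as the median of duplicate plates.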

[2] = system: EMC-BAC-2
Outline: as §1

[3] = system: EPLC-272H
Outline: as §1

[4] = system: H3255
Outline: as §1

[5] = system: HCC-44
Outline: as §1

[6] = system: HCC-827
Outline: as §1

[7] = system: LCLC-103H
Outline: as §1

[8] = system: LCLC-97TM1
Outline: as §1

[9] = system: NCI-H1355
Outline: as §1

[10] = system: NCI-H1563
Outline: as §1

[11] = system: NCI-H1651
Outline: as §1

[12] = system: NCI-H2023
Outline: as §1

[13] = system: NCI-H2085
Outline: as §1

[14] = system: NCI-H2087
Outline: as §1

[15] = system: NCI-H2405
Outline: as §1

[16] = system: NCI-H322M
Outline: as §1

[17] = system: NCI-H520
Outline: as §1

[18] = system: NCI-H650
Outline: as §1

[19] = system: UMC-11
Outline: as §1

SMILES: Oc1nc(-c2ccc(C(F)(F)F)cc2)nc2c1CSCC2 [XAV939] + CC(C)C[C@H](NC(=O)[C@H](Cc1ccccc1)NC(=O)c1cnccn1)B(O)O [Bortezomib] (partner 0.002 µM)
- relative viability ([1]; first compound 0.08 µM): 0.967
- relative viability ([1]; first compound 0.253 µM): 0.848
- relative viability ([1]; first compound 0.8 µM): 0.981
- relative viability ([1]; first compound 2.53 µM): 0.941
- relative viability ([2]; first compound 0.08 µM): 1.11
- relative viability ([2]; first compound 0.253 µM): 0.946
- relative viability ([2]; first compound 0.8 µM): 0.997
- relative viability ([2]; first compound 2.53 µM): 0.636
- relative viability ([3]; first compound 0.08 µM): 1.05
- relative viability ([3]; first compound 0.253 µM): 0.816
- relative viability ([3]; first compound 0.8 µM): 1.02
- relative viability ([3]; first compound 2.53 µM): 0.91
- relative viability ([4]; first compound 0.08 µM): 1.05
- relative viability ([4]; first compound 0.253 µM): 0.716
- relative viability ([4]; first compound 0.8 µM): 0.62
- relative viability ([4]; first compound 2.53 µM): 0.853
- relative viability ([5]; first compound 0.08 µM): 0.909
- relative viability ([5]; first compound 0.253 µM): 0.809
- relative viability ([5]; first compound 0.8 µM): 0.854
- relative viability ([5]; first compound 2.53 µM): 0.824
- relative viability ([6]; first compound 0.08 µM): 1.03
- relative viability ([6]; first compound 0.253 µM): 0.868
- relative viability ([6]; first compound 0.8 µM): 1.07
- relative viability ([6]; first compound 2.53 µM): 1.09
- relative viability ([7]; first compound 0.08 µM): 0.936
- relative viability ([7]; first compound 0.253 µM): 1.11
- relative viability ([7]; first compound 0.8 µM): 0.861
- relative viability ([7]; first compound 2.53 µM): 1.01
- relative viability ([8]; first compound 0.08 µM): 0.589
- relative viability ([8]; first compound 0.253 µM): 0.517
- relative viability ([8]; first compound 0.8 µM): 0.472
- relative viability ([8]; first compound 2.53 µM): 0.505
- relative viability ([9]; first compound 0.08 µM): 1.17
- relative viability ([9]; first compound 0.253 µM): 1.06
- relative viability ([9]; first compound 0.8 µM): 1.21
- relative viability ([9]; first compound 2.53 µM): 0.81
- relative viability ([10]; first compound 0.08 µM): 0.835
- relative viability ([10]; first compound 0.253 µM): 0.81
- relative viability ([10]; first compound 0.8 µM): 0.798
- relative viability ([10]; first compound 2.53 µM): 0.764
- relative viability ([11]; first compound 0.08 µM): 0.906
- relative viability ([11]; first compound 0.253 µM): 0.905
- relative viability ([11]; first compound 0.8 µM): 0.942
- relative viability ([11]; first compound 2.53 µM): 0.925
- relative viability ([12]; first compound 0.08 µM): 1.11
- relative viability ([12]; first compound 0.253 µM): 0.785
- relative viability ([12]; first compound 0.8 µM): 0.833
- relative viability ([12]; first compound 2.53 µM): 0.792
- relative viability ([13]; first compound 0.08 µM): 1.02
- relative viability ([13]; first compound 0.253 µM): 1.03
- relative viability ([13]; first compound 0.8 µM): 0.975
- relative viability ([13]; first compound 2.53 µM): 0.992
- relative viability ([14]; first compound 0.08 µM): 0.864
- relative viability ([14]; first compound 0.253 µM): 0.595
- relative viability ([14]; first compound 0.8 µM): 0.938
- relative viability ([14]; first compound 2.53 µM): 0.763
- relative viability ([15]; first compound 0.08 µM): 1.04
- relative viability ([15]; first compound 0.253 µM): 0.719
- relative viability ([15]; first compound 0.8 µM): 0.893
- relative viability ([15]; first compound 2.53 µM): 0.959
- relative viability ([16]; first compound 0.08 µM): 1.39
- relative viability ([16]; first compound 0.253 µM): 0.996
- relative viability ([16]; first compound 0.8 µM): 1.1
- relative viability ([16]; first compound 2.53 µM): 0.976
- relative viability ([17]; first compound 0.08 µM): 0.612
- relative viability ([17]; first compound 0.253 µM): 0.317
- relative viability ([17]; first compound 0.8 µM): 0.659
- relative viability ([17]; first compound 2.53 µM): 0.368
- relative viability ([18]; first compound 0.08 µM): 0.838
- relative viability ([18]; first compound 0.253 µM): 0.882
- relative viability ([18]; first compound 0.8 µM): 0.854
- relative viability ([18]; first compound 2.53 µM): 0.703
- relative viability ([19]; first compound 0.08 µM): 0.789
- relative viability ([19]; first compound 0.8 µM): 0.754
- relative viability ([19]; first compound 2.53 µM): 0.708

SMILES: C=C1C(=O)O[C@@H](CCCCCCCC)[C@@H]1C(=O)O [C-75] + CC(C)C[C@H](NC(=O)[C@H](Cc1ccccc1)NC(=O)c1cnccn1)B(O)O [Bortezomib] (partner 0.002 µM)
- relative viability ([1]; first compound 0.08 µM): 0.927
- relative viability ([1]; first compound 0.253 µM): 0.944
- relative viability ([1]; first compound 0.8 µM): 0.894
- relative viability ([1]; first compound 2.53 µM): 0.872
- relative viability ([1]; first compound 8 µM): 0.96
- relative viability ([2]; first compound 0.08 µM): 1.1
- relative viability ([2]; first compound 0.253 µM): 1.05
- relative viability ([2]; first compound 0.8 µM): 1.11
- relative viability ([2]; first compound 2.53 µM): 0.914
- relative viability ([2]; first compound 8 µM): 1.13
- relative viability ([3]; first compound 0.08 µM): 1.03
- relative viability ([3]; first compound 0.253 µM): 0.845
- relative viability ([3]; first compound 0.8 µM): 0.792
- relative viability ([3]; first compound 2.53 µM): 0.833
- relative viability ([3]; first compound 8 µM): 0.913
- relative viability ([4]; first compound 0.08 µM): 0.841
- relative viability ([4]; first compound 0.253 µM): 0.811
- relative viability ([4]; first compound 0.8 µM): 0.715
- relative viability ([4]; first compound 2.53 µM): 0.799
- relative viability ([4]; first compound 8 µM): 0.8
- relative viability ([5]; first compound 0.08 µM): 0.885
- relative viability ([5]; first compound 0.253 µM): 0.863
- relative viability ([5]; first compound 0.8 µM): 0.857
- relative viability ([5]; first compound 2.53 µM): 0.714
- relative viability ([5]; first compound 8 µM): 0.89
- relative viability ([6]; first compound 0.08 µM): 1.09
- relative viability ([6]; first compound 0.253 µM): 0.995
- relative viability ([6]; first compound 0.8 µM): 0.972
- relative viability ([6]; first compound 2.53 µM): 1.01
- relative viability ([6]; first compound 8 µM): 1.08
- relative viability ([7]; first compound 0.08 µM): 1.23
- relative viability ([7]; first compound 0.253 µM): 0.907
- relative viability ([7]; first compound 0.8 µM): 1.06
- relative viability ([7]; first compound 2.53 µM): 0.811
- relative viability ([7]; first compound 8 µM): 1.18
- relative viability ([8]; first compound 0.08 µM): 0.636
- relative viability ([8]; first compound 0.253 µM): 0.595
- relative viability ([8]; first compound 0.8 µM): 0.222
- relative viability ([8]; first compound 2.53 µM): 0.477
- relative viability ([8]; first compound 8 µM): 0.218
- relative viability ([9]; first compound 0.08 µM): 1.24
- relative viability ([9]; first compound 0.253 µM): 1.28
- relative viability ([9]; first compound 0.8 µM): 1.07
- relative viability ([9]; first compound 2.53 µM): 1.1
- relative viability ([9]; first compound 8 µM): 1.21
- relative viability ([10]; first compound 0.08 µM): 0.855
- relative viability ([10]; first compound 0.253 µM): 1.1
- relative viability ([10]; first compound 0.8 µM): 0.963
- relative viability ([10]; first compound 2.53 µM): 0.763
- relative viability ([10]; first compound 8 µM): 0.906
- relative viability ([11]; first compound 0.08 µM): 0.92
- relative viability ([11]; first compound 0.253 µM): 0.894
- relative viability ([11]; first compound 0.8 µM): 0.875
- relative viability ([11]; first compound 2.53 µM): 0.843
- relative viability ([11]; first compound 8 µM): 0.886
- relative viability ([12]; first compound 0.08 µM): 1.04
- relative viability ([12]; first compound 0.253 µM): 1.22
- relative viability ([12]; first compound 0.8 µM): 0.902
- relative viability ([12]; first compound 2.53 µM): 0.843
- relative viability ([12]; first compound 8 µM): 0.835
- relative viability ([13]; first compound 0.08 µM): 1.13
- relative viability ([13]; first compound 0.253 µM): 0.882
- relative viability ([13]; first compound 0.8 µM): 0.999
- relative viability ([13]; first compound 2.53 µM): 0.76
- relative viability ([13]; first compound 8 µM): 0.897
- relative viability ([14]; first compound 0.08 µM): 0.724
- relative viability ([14]; first compound 0.253 µM): 0.863
- relative viability ([14]; first compound 0.8 µM): 0.743
- relative viability ([14]; first compound 2.53 µM): 0.396
- relative viability ([14]; first compound 8 µM): 0.581
- relative viability ([15]; first compound 0.08 µM): 0.995
- relative viability ([15]; first compound 0.253 µM): 0.773
- relative viability ([15]; first compound 0.8 µM): 0.974
- relative viability ([15]; first compound 2.53 µM): 0.673
- relative viability ([15]; first compound 8 µM): 0.971
- relative viability ([16]; first compound 0.08 µM): 1.36
- relative viability ([16]; first compound 0.253 µM): 1.45
- relative viability ([16]; first compound 0.8 µM): 1.21
- relative viability ([16]; first compound 2.53 µM): 1.09
- relative viability ([16]; first compound 8 µM): 1.25
- relative viability ([17]; first compound 0.08 µM): 0.442
- relative viability ([17]; first compound 0.253 µM): 0.425
- relative viability ([17]; first compound 0.8 µM): 0.578
- relative viability ([17]; first compound 2.53 µM): 0.337
- relative viability ([17]; first compound 8 µM): 0.58
- relative viability ([18]; first compound 0.08 µM): 0.828
- relative viability ([18]; first compound 0.253 µM): 0.691
- relative viability ([18]; first compound 0.8 µM): 0.547
- relative viability ([18]; first compound 2.53 µM): 0.745
- relative viability ([18]; first compound 8 µM): 0.586
- relative viability ([19]; first compound 0.08 µM): 0.691
- relative viability ([19]; first compound 0.253 µM): 0.761
- relative viability ([19]; first compound 0.8 µM): 0.804
- relative viability ([19]; first compound 2.53 µM): 0.575
- relative viability ([19]; first compound 8 µM): 0.604

Source: the supplement of paper PMC10307832
